In experiment [1] the target is human IL-17A / human IL-17RA (Homo sapiens (Human), UniProt Q16552). The experiment can be described thus: Human IL-17A biochemical assay (HTRF, blocking of IL-17A binding to IL-17RA). As to conditions: 0.4 nM IL-17A, 0.3 nM IL-17RA, max compound concentration 10 uM. The method, boiled down: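 0.4 nM hIL-17A + cpd (10 uM top, 2.7x, 10 pt), 3 h RT, HEPES pH 7.5 buffer w/ BSA, DTT, Tween 20; + 0.3 nM hIL-17RA 1 h RT; Tb/XL665 Abs 1 h; HTRF 620/665 ratio; 4PL IC50.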

Experiment [2] deals with IL-17-induced GROα secretion from HT-29 cells. The experiment in a line: GROα release assay in human colorectal adenocarcinoma epithelial cell (HT-29, ELISA). As to conditions: Homo sapiens, HT-29, 48 h, 10 ng/mL IL-17A, highest concentration 10 μM, read-out: Cellular assay HT29 cell/CXCL1 IC50. The experiment is classed as cell-based. The method, boiled down:
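HT-29 cells were exposed 48 h at 37°C to IL-17A (final 10 ng/mL) preincubated 15 min with compound (4-fold dilutions, top 10 μM). Secreted GROα was quantified by ELISA against a standard curve, and IC50 obtained by four-parameter fitting.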
For orientation: An ELISA detects its analyte on a solid surface through an enzyme-linked reagent.

human IL-17A / human IL-17RA, sequence (Q16552 24-155): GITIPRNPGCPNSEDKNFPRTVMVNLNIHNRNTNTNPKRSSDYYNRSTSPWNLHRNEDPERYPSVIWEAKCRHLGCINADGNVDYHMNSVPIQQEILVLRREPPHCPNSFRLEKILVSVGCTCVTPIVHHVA

On to `CC(C)CNC(=O)C1(N2C[C@@H](C(C)C)NC2=O)Cc2ccc(NC(=O)[C@@H](NC(=O)c3ccnn3C)C3CCCCC3)cc2C1` (stereo partly drawn) [Example 124, N-((1S)-1-cyclohexyl-2-((2-(isobutylcarbamoyl)-2-((R)-4-isopropyl-2-oxoimidazolidin-1-yl)-2,3-dihydro-1H-inden-5-yl)amino)-2-oxoethyl)-1-methyl-1H-pyrazole-5-carboxamide], for which the IC50 in experiment [1] was found to be 19 nM; in experiment [2] it was 32.5 nM.
For `Cc1nonc1C(=O)N[C@H](C(=O)Nc1ccc2c(c1)CC(C#N)(N1CC3(CC3)CNC1=O)C2)C(C1CC1)C1CC1` (stereo partly drawn) [Example 226, N-((2S)-1-((2-cyano-2-(6-oxo-5,7-diazaspiro[2.5]octan-5-yl)-2,3-dihydro-1H-inden-5-yl)amino)-3,3-dicyclopropyl-1-oxopropan-2-yl)-4-methyl-1,2,5-oxadiazole-3-carboxamide], in that order: 50.4 nM and 225 nM.
Regarding `CC[C@@H]1CN(C2(C(=O)NC)Cc3cc4nc([C@@H](NC(=O)c5ccnn5C)C5CCCCC5)[nH]c4cc3C2)C(=O)N1` [Example 31, 2-((S)-cyclohexyl(1-methyl-1H-pyrazole-5-carboxamido)methyl)-6-((R)-4-ethyl-2-oxoimidazolidin-1-yl)-N-methyl-1,5,6,7-tetrahydroindeno[5,6-d]imidazole-6-carboxamide], the IC50 in experiment [1] came out at 203 nM; in experiment [2], 116 nM.
Turning to `CNC(=O)C1(N2CC3(CC3)CNC2=O)Cc2cc3nc([C@@H](NC(=O)c4ccnn4C)C4CCCCC4)[nH]c3cc2C1` [Example 137, 2-((S)-cyclohexyl(1-methyl-1H-pyrazole-5-carboxamido)methyl)-N-methyl-6-(6-oxo-5,7-diazaspiro[2.5]octan-5-yl)-1,5,6,7-tetrahydroindeno[5,6-d]imidazole-6-carboxamide], the IC50 in experiment [1] is 413 nM; in experiment [2], 1490 nM.
For `CNC(=O)C1(N2C[C@@H](C(C)C)NC2=O)Cc2ccc(NC(=O)[C@@H](NC(=O)c3cccc(Cl)c3)C3CCCCC3)cc2C1` (stereo partly drawn) [Example 69, 5-((S)-2-(3-chlorobenzamido)-2-cyclohexylacetamido)-2-((R)-4-isopropyl-2-oxoimidazolidin-1-yl)-N-methyl-2,3-dihydro-1H-indene-2-carboxamide], in that order: 120 nM and 432 nM.
The matching figures for `Cc1ccccc1NC(=O)C1(N2CC3(CC3)CNC2=O)Cc2ccc(NC(=O)[C@@H](NC(=O)c3nonc3C)C3CCC(F)(F)CC3)cc2C1` (stereo partly drawn) [Example 214, N-((1S)-1-(4,4-difluorocyclohexyl)-2-oxo-2-((2-(6-oxo-5,7-diazaspiro[2.5]octan-5-yl)-2-(o-tolylcarbamoyl)-2,3-dihydro-1H-inden-5-yl)amino)ethyl)-4-methyl-1,2,5-oxadiazole-3-carboxamide]: 37.3 nM and 102 nM.
Regarding `CNC(=O)C1(N2C[C@@H](C(C)C)NC2=O)Cc2ccc(NC(=O)[C@@H](NC(=O)c3nonc3C)C3CCC(F)(F)CC3)cc2C1` (stereo partly drawn) [Example 116, N-((1S)-1-(4,4-difluorocyclohexyl)-2-((2-((R)-4-isopropyl-2-oxoimidazolidin-1-yl)-2-(methylcarbamoyl)-2,3-dihydro-1H-inden-5-yl)amino)-2-oxoethyl)-4-methyl-1,2,5-oxadiazole-3-carboxamide], the IC50 in experiment [1] stood at 69.1 nM; in experiment [2], 415 nM.
For `Cc1nonc1C(=O)N[C@H](C(=O)Nc1ccc2c(c1)CC(N1CC3(CC3)CNC1=O)(C(C)(C)O)C2)C1CCC(F)(F)CC1` (stereo partly drawn) [Example 247, N-((1S)-1-(4,4-difluorocyclohexyl)-2-((2-(2-hydroxypropan-2-yl)-2-(6-oxo-5,7-diazaspiro[2.5]octan-5-yl)-2,3-dihydro-1H-inden-5-yl)amino)-2-oxoethyl)-4-methyl-1,2,5-oxadiazole-3-carboxamide], in that order: 20.9 nM and 40.8 nM.
For `Cc1nonc1C(=O)N[C@H](C(=O)Nc1ccc2c(c1)CC(C(=O)Nc1ccccc1F)(N1C[C@@H](C(C)C)NC1=O)C2)C1CCC(F)(F)CC1` (stereo partly drawn) [Example 249, N-((1S)-1-(4,4-difluorocyclohexyl)-2-((2-((2-fluorophenyl)carbamoyl)-2-((R)-4-isopropyl-2-oxoimidazolidin-1-yl)-2,3-dihydro-1H-inden-5-yl)amino)-2-oxoethyl)-4-methyl-1,2,5-oxadiazole-3-carboxamide], in that order: 226 nM and 695 nM.
For the molecule `Cc1nonc1C(=O)N[C@H](C(=O)Nc1ccc2c(c1)CC(C(C)C)(N1CC(C(F)(F)F)NC1=O)C2)C(C1CC1)C1CC1` (stereo partly drawn) [Example 212, N-((2S)-1,1-dicyclopropyl-3-((2-isopropyl-2-(2-oxo-4-(trifluoromethyl)imidazolidin-1-yl)-2,3-dihydro-1H-inden-5-yl)amino)-3-oxopropan-2-yl)-4-methyl-1,2,5-oxadiazole-3-carboxamide], the IC50 was found to be 687 nM in experiment [1] and 1030 nM in experiment [2].
For `Cn1nccc1C(=O)N[C@H](C(=O)Nc1ccc2c(c1)CC(C(=O)C(F)(F)F)(N1CC3(CC3)CNC1=O)C2)C1CCCCC1` (stereo partly drawn) [Example 193, N-((1S)-1-cyclohexyl-2-oxo-2-((2-(6-oxo-5,7-diazaspiro[2.5]octan-5-yl)-2-(2,2,2-trifluoroacetyl)-2,3-dihydro-1H-inden-5-yl)amino)ethyl)-1-methyl-1H-pyrazole-5-carboxamide], the IC50 in experiment [1] was 50.7 nM; in experiment [2], 140 nM.
The matching figures for `CC(C)[C@@H]1CN(C2(C(=O)N(C)C)Cc3ccc(NC(=O)[C@@H](NC(=O)c4ccnn4C)C4CCCCC4)cc3C2)C(=O)N1` (stereo partly drawn) [Example 135, N-((1S)-1-cyclohexyl-2-((2-(dimethylcarbamoyl)-2-((R)-4-isopropyl-2-oxoimidazolidin-1-yl)-2,3-dihydro-1H-inden-5-yl)amino)-2-oxoethyl)-1-methyl-1H-pyrazole-5-carboxamide]: 186 nM and 245 nM.
On to `CNC(=O)C1(N2C[C@@H](Cc3ccccc3)NC2=O)Cc2ccc(NC(=O)[C@@H](NC(=O)c3ccnn3C)C3CCCCC3)cc2C1` (stereo partly drawn) [Example 37, N-((1S)-2-((2-((R)-4-benzyl-2-oxoimidazolidin-1-yl)-2-(methylcarbamoyl)-2,3-dihydro-1H-inden-5-yl)amino)-1-cyclohexyl-2-oxoethyl)-1-methyl-1H-pyrazole-5-carboxamide], for which the IC50 in experiment [1] is 112 nM; in experiment [2], 1480 nM.
The matching figures for `CC1CN(C2(C(N)=O)Cc3ccc(NC(=O)[C@@H](NC(=O)c4ccnn4C)C4CCCCC4)cc3C2)C(=O)N1` (stereo partly drawn) [Example 15, N-((1S)-2-((2-carbamoyl-2-(4-methyl-2-oxoimidazolidin-1-yl)-2,3-dihydro-1H-inden-5-yl)amino)-1-cyclohexyl-2-oxoethyl)-1-methyl-1H-pyrazole-5-carboxamide]: 550 nM and 1240 nM.
For `CNC(=O)C1(N2CC(C)NC2=O)Cc2ccc(NC(=O)[C@@H](NC(=O)c3ccnn3C)C3CCCCC3)cc2C1` (stereo partly drawn) [Example 1, N-((1S)-1-cyclohexyl-2-((2-(4-methyl-2-oxoimidazolidin-1-yl)-2-(methylcarbamoyl)-2,3-dihydro-1H-inden-5-yl)amino)-2-oxoethyl)-1-methyl-1H-pyrazole-5-carboxamide], in that order: 379 nM and 898 nM.
Take `COCC1(N2CC3(CC3)CNC2=O)Cc2ccc(NC(=O)[C@@H](NC(=O)c3ccnn3C(C)C)C(C3CC3)C3CC3)cc2C1` (stereo partly drawn) [Example 160, N-((2S)-1,1-dicyclopropyl-3-((2-(methoxymethyl)-2-(6-oxo-5,7-diazaspiro[2.5]octan-5-yl)-2,3-dihydro-1H-inden-5-yl)amino)-3-oxopropan-2-yl)-1-isopropyl-1H-pyrazole-5-carboxamide]: the IC50 in experiment [1] stood at 110 nM; in experiment [2] it was 93.1 nM.
The matching figures for `CNC(=O)C1(N2CC3(CCC3)CNC2=O)Cc2ccc(NC(=O)[C@@H](NC(=O)c3ccnn3C)C(C3CC3)C3CC3)cc2C1` (stereo partly drawn) [Example 120, N-((2S)-1,1-dicyclopropyl-3-((2-(methylcarbamoyl)-2-(7-oxo-6,8-diazaspiro[3.5]nonan-6-yl)-2,3-dihydro-1H-inden-5-yl)amino)-3-oxopropan-2-yl)-1-methyl-1H-pyrazole-5-carboxamide]: 19 nM and 72.4 nM.
Regarding `Cc1nonc1C(=O)N[C@H](C(=O)Nc1ccc2c(c1)CC(N1C[C@@H](C(F)(F)F)NC1=O)C2)C(C1CC1)C1CC1` (stereo partly drawn) [Example 183, N-((2S)-1,1-dicyclopropyl-3-oxo-3-((2-((S)-2-oxo-4-(trifluoromethyl)imidazolidin-1-yl)-2,3-dihydro-1H-inden-5-yl)amino)propan-2-yl)-4-methyl-1,2,5-oxadiazole-3-carboxamide], the figures for the IC50 in experiment [1] and in experiment [2] were 768 nM and 370 nM, respectively.
The matching figures for `Cc1nonc1C(=O)N[C@H](C(=O)Nc1ccc2c(c1)CC(C(=O)NC1CCOC1)(N1C[C@@H](C(C)C)NC1=O)C2)C(C1CC1)C1CC1` (stereo partly drawn) [Example 280, N-((2S)-1,1-dicyclopropyl-3-((2-((R)-4-isopropyl-2-oxoimidazolidin-1-yl)-2-((tetrahydrofuran-3-yl)carbamoyl)-2,3-dihydro-1H-inden-5-yl)amino)-3-oxopropan-2-yl)-4-methyl-1,2,5-oxadiazole-3-carboxamide]: 17.3 nM and 48.1 nM.

For the origin of these results see patent US20250154138A1, “Small Molecule IL-17A Modulators” (BeiGene, Ltd., priority 2022, published 2025).
